# Results: patent US12214076B2, “Drug delivery vehicles for atherosclerosis nanomedicine” (Northwestern University, priority 2019, dated 2025)
# Peptide text beside a SMILES is read from it. * marks the point of attachment. Palmitoyl = CCCCCCCCCCCCCCCC(=O)*
# Key:
# Format in all cases: in vivo, mouse
# [1] = Off-target localization in internal organs, fluorescent pixel analysis
# Experimental: (§1) Dose and concentration study: To determine the optimum concentration for targeting efficacy and safety, LDLR KO mice fed the high fat diet for 14 weeks were injected with PA nanofiber at concentrations of 1 mg/mL, 2 mg/mL, and 4 mg/mL at 8 mg/kg in PBS. Similarly, to determine the optimum dose for targeting efficacy and safety, LDLR KO mice fed the high fat diet for 14 weeks were injected at PA nanofiber doses of 8 mg/kg, 6 mg/kg, 4 mg/kg, 3.3 mg/kg, and 1.7 mg/kg at 2 mg/mL in PBS. Safety, optimum dose, and concentration for targeting was assessed by survival of the animal and fluorescent pixel quantification in the aortic root, liver, lungs, kidneys, and spleen.
# (§2) Tissue processing and imaging: Mice were sacrificed and euthanized under inhaled isoflurane anesthesia by diaphragm disruption and exsanguination. Phlebotomy was performed through direct right ventricular cardiac puncture using a 1 mL syringe and 25 G needle. Perfusion was performed through left ventricular cardiac puncture with 10 mL PBS and 10 mL 10% sucrose solution. The lungs, liver, spleen, kidney, aortic root, aortic arch, and descending aorta were harvested and stored in 10% sucrose for 20 minutes. Organs and vessels were then flash-frozen in Optimal Cutting Temperature embedding medium 4583 (Tissue-Tek®) with liquid nitrogen. Frozen specimens were stored at −80° C. and cryosectioned at […]. Confocal microscopy was performed on a Nikon AIR microscope. Two sets of images were acquired with a 10× Plan Fluor NA 0.3 objective. PAs were identified through quantification of the Alexa Fluor® 546 conjugated dye with 561 nm excitation and a 600/50 nm emission filter.
# Images were acquired with spectral detection and spectrally unmixed to accurately separate green autofluorescence from the red Alexa Fluor® 546 signal. […] Slides were stained with Oil Red O to image and quantify atherosclerosis under brightfield microscopy. […] Fluorescent pixel quantification in the aortic root and within organs was performed with ImageJ software.
# [2] = test system: LDLR KO mice; assay: Atherosclerosis treatment study; settings: both sexes, twice per week over eight weeks, percent of atherosclerosis in the aortic root
# Experimental: (§3) Mouse model of atherosclerosis: To study atherosclerosis, the LDLR KO mouse was used. LDLR KO mice are fed a high fat “western” diet (Teklad TD.88137) starting at 4 weeks of age. This diet consists of 20% fat, 0.2% cholesterol, and 34% high sucrose. LDLR KO mice fed this diet typically develop severe hypercholesterolemia (>800 mg/dL) and hypertriglyceridemia (>300 mg/dL) after only 2 weeks. By 12 weeks on the high fat diet, atherosclerotic lesions are detected in the aortic root and aortic arch on cryosections stained with Oil Red O (Sigma). Atherosclerosis was quantified in the aortic root as a percentage of the aortic root by taking the atherosclerotic area divided by the total aortic root area. Measurements were made with ImageJ software. All protocols for the animal model and procedures in this manuscript were approved by Northwestern University's Institutional Animal Care and Use Committee.
# Blood samples were collected at the end of the treatment study for toxicology analysis. Mice were euthanized three days after their 16th treatment.
# as §2
# (§4) Images were acquired with spectral detection and spectrally unmixed to accurately separate green autofluorescence from the red Alexa Fluor® 546 signal. Brightfield and fluorescent microscopy were performed using a Zeiss Axio Imager.A2 microscope with AxioVision software (release 4.8.2, 06-2010). All confocal and fluorescent sections were mounted with ProGold Diamond mounting media (Sigma). Slides were stained with Oil Red O to image and quantify atherosclerosis under brightfield microscopy. The elastic laminae were identified using the green fluorescent protein (GFP) filter with an exposure time of 3500 ms under 5× magnification. Nanofibers were identified in the aortic root by presence of Alexa Fluor® 546 on the Cy3 filter under 5-10× magnification, and in the internal organs under 20× magnification. Fluorescent pixel quantification in the aortic root and within organs was performed with ImageJ software.
# Statistics: The effect of treatments and sex on atherosclerosis progression in mice was analyzed using one- or two-factor analysis of variance (ANOVA) followed by a post-hoc student's t-test. The toxicological effects of treatments were also analyzed using two-factor ANOVA and a post-hoc student's t-test. Toxicological effects of treatments on liver proteins AST, ALT, and ALP were further analyzed using ordinal logistic regression models of likelihood ratio tests, followed by a post-hoc Wald test
# [3] = test system: LDLR KO mice; assay: Targeting of atherosclerosis by IV injected ApoA1 PA nanofibers (Example 3)
# Experimental: as §3
# Injection of PA nanofibers: PA nanofibers were dissolved at 2-4 mg/mL concentration in room temperature phosphate buffered saline (PBS). After 14 weeks on the high fat diet, mice received intravenous injections of PA nanofiber dissolved in PBS (dorsal penile vein in males, retro-orbital injection in females) using a 31 G hypodermic insulin needle on a 0.3 mL syringe under sterile conditions and magnification (NIKON SMZ 645 Zoom Stereomicroscope). Mice were briefly anesthetized for injection with inhaled isoflurane. Mice were monitored and allowed to recover from anesthesia in a heated oxygen chamber.
# as §1, §2
# as §4, with “Fluorescent pixel quantification in the aortic root and within organs was performed with ImageJ software.” left out
structure (smiles),measurement,setting,value
CCCCCCCCCCCCCCCC(=O)N[C@H](C(=O)N[C@H](C(=O)N[C@@H](C)C(=O)N[C@@H](C)C(=O)N[C@@H](CCC(=O)O)C(=O)N[C@@H](CCC(=O)O)C(=O)NCC(=O)N[C@@H](CC(=O)O)C(=O)N[C@@H](Cc1c[nH]c2ccccc12)C(=O)N[C@@H](Cc1ccccc1)C(=O)N[C@@H](CCCCN)C(=O)N[C@@H](C)C(=O)N[C@@H](Cc1ccccc1)C(=O)N[C@@H](Cc1ccc(O)cc1)C(=O)N[C@@H](CC(=O)O)C(=O)N[C@@H](CCCCN)C(=O)N[C@H](C(=O)N[C@@H](C)C(=O)N[C@@H](CCC(=O)O)C(=O)N[C@@H](CCCCN)C(=O)N[C@@H](Cc1ccccc1)C(=O)N[C@@H](CCCCN)C(=O)N[C@@H](CCC(=O)O)C(=O)N[C@@H](C)C(=O)N[C@@H](Cc1ccccc1)C(N)=O)C(C)C)C(C)C)C(C)C [ApoA1 PA] (Palmitoyl-VVAAEEGDWFKAFYDKVAEKFKEAF-NH2),"detection in the lung, liver, and kidney",[1]; 1-14 days post injection,minimal detection
same,time when red fluorescent pixels returned to non-injected control levels,"[1]; all internal organs, post injection",10 to 14 days
same,time of detection in the spleen,[1]; post injection,1 to 10 days
same,atherosclerosis progression in comparison to the PBS control,[2],significantly decreased
same,binding duration in areas of atherosclerosis,[3]; after injection,remained localized to areas of atherosclerosis at high concentrations for two days
same,time post injection when fluorescent pixel analysis was not different from control non-injected mice,[3]; aortic root,10 to 14 days
same,dose dependence of localization at the aortic root,[3]; constant concentration 2 mg/mL,"Doses of 8 mg/kg and 6 mg/kg were superior to 4 mg/kg, which was superior to 1.7 mg/kg"
same,"fluorescent pixels in aortic root, 4 mg/mL vs. 2 mg/mL","[3]; constant dose 8 mg/kg, 24 hours after injection",no significant difference
same,localization in male versus female LDLR KO mice,"[3]; mouse, in vivo",no statistically significant difference in localization between the sexes
same,localization to areas of atherosclerosis,"[3]; within 24 hours after injection, confocal, Alexa Fluor 546",localized to areas of atherosclerosis
